Each compound was assayed against T1, vitamin D receptor (Sus scrofa, UniProt A3RGC1) (assay: calcitriol-receptor test (competition with 3H-calcitriol)). Conditions: concentration of test substance / concentration of calcitriol at 50% competition; pig intestine protein extract, 3H-calcitriol 5×10^−10 mol/l.
T1 construct: Receptor-containing protein extract is incubated in a test tube with ^3H-calcitriol; from tissue; host or cells: intestines of juvenile pigs (protein extract)
T1 sequence (A3RGC1 1-427): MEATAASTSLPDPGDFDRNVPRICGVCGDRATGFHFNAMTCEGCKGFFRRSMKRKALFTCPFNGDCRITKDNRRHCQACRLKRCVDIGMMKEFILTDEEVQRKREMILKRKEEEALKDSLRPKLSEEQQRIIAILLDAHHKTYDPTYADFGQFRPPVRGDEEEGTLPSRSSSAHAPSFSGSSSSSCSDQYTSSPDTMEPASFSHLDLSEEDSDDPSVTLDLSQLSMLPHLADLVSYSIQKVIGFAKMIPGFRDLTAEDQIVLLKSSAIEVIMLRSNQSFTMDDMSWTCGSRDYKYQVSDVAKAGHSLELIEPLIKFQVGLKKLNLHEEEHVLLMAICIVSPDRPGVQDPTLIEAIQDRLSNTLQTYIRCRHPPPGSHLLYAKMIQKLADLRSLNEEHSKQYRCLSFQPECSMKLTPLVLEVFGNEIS
Type: binding
Protocol: It is carried out using a protein extract from the intestines of juvenile pigs. […] Then, the samples are centrifuged at 10,000 g for 5 minutes at 4° C. The supernatant is decanted and measured in a β-counter after 1 hour of equilibration in Picofluor 15™.
It is defined as a quotient of the concentrations of the respective test substance and the reference substance, which are necessary for 50% competition:
KF=Concentration of test substance at 50% competition/Concentration of reference substance at 50% competition
For `C=C1/C(=C\C=C2/CCC[C@]3(C)[C@@H]([C@H](C)/C=C/C(=O)C(CC)(CC)P(=O)(OCC)OCC)CC[C@@H]23)C[C@@H](O)C[C@@H]1O` [Compound 57, (5Z,7E,22E)-(1S,3R)-(1,3-Dihydroxy-26,27-dimethyl-24-oxo-9,10-secocholesta-5,7,10(19),22-tetraen-25-yl)phosphonic acid diethyl ester], the “KF (competition factor)” value was 16.
In the case of `C=C1/C(=C\C=C2/CCC[C@]3(C)[C@@H]([C@H](C)/C=C/C(=O)CP(=O)(OC(C)C)OC(C)C)CC[C@@H]23)C[C@@H](O)C[C@@H]1O` [Compound 13, (5Z,7E,22E)-(1S,3R)-(1,3-Dihydroxy-24-oxo-24a-homo-9,10-secochola-5,7,10(19),22-tetraen-24a-yl)phosphonic acid bis(1-methylethyl)ester], the “KF (competition factor)” value is reported as 6.
In the case of `C=C1C(=CC=C2CCCC3(C)C2CCC3C(C)C=CC(O)P(=O)(OC(C)C)OC(C)C)CC(O)CC1O` [Compound 65b, (5Z,7E,22E)-(1S,3R,24R)-(1,3,24-trihydroxy-9,10-secochola-5,7,10(19),22-tetraen-24-yl)phosphonic acid-bis(1-methylethyl)ester], the “KF (competition factor)” value is reported as 10.
For `C=C1/C(=C\C=C2/CCC[C@]3(C)[C@@H]([C@H](C)/C=C/C(CP(=O)(OCC)OCC)P(=O)(OCC)OCC)CC[C@@H]23)C[C@@H](O)C[C@@H]1O` (stereo partly drawn) [Compound 29, (5Z,7E,22E)-(1S,3R,24ξ)-(1,3-Dihydroxy-24a-homo-9,10-secochola-5,7,10(19),22-tetraene-24,24a-diyl)bis[phosphonic acid diethyl ester]], the “KF (competition factor)” value was 10.
In the case of `C=C1C(=CC=C2CCCC3(C)C2CCC3C(C)C=CC(=O)C(C)(C)P(=O)(OCC)OCC)CC(O)CC1O` [Compound 53, (5Z,7E,22E)-(1S,3R)-(1,3-Dihydroxy-24-oxo-9,10-secocholesta-5,7,10(19),22-tetraen-25-yl)phosphonic acid diethyl ester], the “KF (competition factor)” value is reported as 12.
`C=C1/C(=C\C=C2/CCC[C@]3(C)[C@@H]([C@H](C)/C=C/C(=O)CP(=O)(OC)OC)CC[C@@H]23)C[C@@H](O)C[C@@H]1O` [Compound 5, (5Z,7E,22E)-(1S,3R)-(1,3-Dihydroxy-24-oxo-24a-homo-9,10-secochola-5,7,10(19),22-tetraen-24a-yl)phosphonic acid dimethyl ester] was tested, and the “KF (competition factor)” value was 10.
For `C=C1/C(=C\C=C2/CCC[C@]3(C)[C@@H]([C@H](C)/C=C/C(=O)CP(=O)(OCC)OCC)CC[C@@H]23)C[C@@H](O)C[C@@H]1O` [Compound 9, (5Z,7E,22E)-(1S,3R)-(1,3-Dihydroxy-24-oxo-24a-homo-9,10-secochola-5,7,10(19),22-tetraen-24a-yl)phosphonic acid diethyl ester], the “KF (competition factor)” value was 10.

Source: US6531459B1, “Vitamin D derivatives with phosphorus atoms in the side chains” (Schering Aktiengesellschaft, priority 1997, dated 2003)
